This is an account of results in PubChem BioAssay (NCI).

Assay in all cases: NCI tumour cell line growth inhibition, 48 h
Experiment [1] deals with PC-3 prostate.
The test system of experiment [2] is K-562 leukemia.
In experiment [3] the test system is SNB-19 CNS.
Experiment [4] deals with HOP-92 NSCLC.
In experiment [5] the test system is U251 CNS.
Experiment [6] relates to HL-60(TB) leukemia.
Experiment [7] has as its system CAKI-1 renal.
The test system of experiment [8] is MDA-N.
Experiment [9] has as its system SR leukemia.
For experiment [10], the system named is OVCAR-4 ovarian.
Experiment [11] deals with SK-MEL-5 melanoma.
For experiment [12], the system named is TK-10 renal.
Experiment [13] relates to IGROV1 ovarian.
Experiment [14] deals with SW-620 colon.
The subject of experiment [15] is DU-145 prostate.
The subject of experiment [16] is NCI-H226 lung.
The test system of experiment [17] is HCT-15 colon.
The test system of experiment [18] is RXF 393 renal.
Experiment [19] deals with CCRF-CEM leukemia.
Experiment [20] concerns HCC-2998 colon.

Molecules are shown by their SMILES.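 Five concentrations, 48 hours, 96-well plates. TGI: concentration producing complete growth inhibition.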

As for `CN(C)c1ccc(/C=C2\C[C@H]3[C@@H]4CCC5=CC(=O)CC[C@]5(C)[C@H]4CC[C@]3(C)C2=O)cc1`, the TGI in experiment [1] was 66.8 µM; in experiment [2] it was above 100 µM; in experiment [3], above 100 µM; in experiment [4], 66.1 µM; in [5], 85.6 µM; in experiment [6], above 100 µM. Moreover, the TGI was above 100 µM in [7]; above 100 µM in experiment [8]; above 100 µM in experiment [9]; above 100 µM in [10]; 32.3 µM in experiment [11]; above 100 µM in experiment [12]. For the same molecule, the TGI in experiment [13], in experiment [14], in experiment [15], in [16], in experiment [17] and in experiment [18] was above 100 µM each time.
Consider `Cn1c(=O)c2[nH]c(/N=N\n3ccc4ccccc43)nc2n(C)c1=O`, for which the TGI in [19], in experiment [20], in experiment [1], in experiment [2], in experiment [3] and in experiment [5] was above 100 µM in each case. The TGI in experiment [6], in [7], in [8], in [9], in experiment [10] and in experiment [11] was above 100 µM each time. For the same molecule, the TGI in experiment [12], in [14], in experiment [15], in experiment [16], in [17] and in experiment [18] was above 100 µM in each case.
With `Nc1cc(OCc2ccccc2)c(OCc2ccccc2)cc1C=O`, the TGI in experiment [19] is above 100 µM; in [20], 34.5 µM; in experiment [1] it was above 100 µM; in experiment [2], above 100 µM; in experiment [3], above 100 µM; in experiment [5], 93.9 µM. For the same molecule, the TGI was 40 µM in [6]; above 100 µM in [8]; above 100 µM in [9]; 93.1 µM in experiment [11]; 67.8 µM in experiment [12]; above 100 µM in [13]. For the same molecule, the TGI in experiment [14], in [15], in [16] and in experiment [17] was above 100 µM in each case.
As to `O=C1OC(C2Cc3cc4c(cc3C2=O)CCC4)c2ccccc21` (stereo unspecified), the TGI in experiment [19] is above 100 µM; in [20], 98.7 µM; in [1], above 100 µM; in [2], above 100 µM; in experiment [3] it was above 100 µM; in [5] it was above 100 µM. Moreover, the TGI in experiment [6], in experiment [7], in [8], in experiment [9], in experiment [10] and in [11] was above 100 µM in each case. The TGI is above 100 µM in experiment [12]; above 100 µM in experiment [13]; above 100 µM in [14]; above 100 µM in [15]; 58.6 µM in [16]; above 100 µM in experiment [17].
As for `O=C(CN1CCOCC1)c1ccc2[nH]c(=O)oc2c1`, the TGI in experiment [19], in [1], in [2], in [3], in experiment [5] and in experiment [6] was above 100 µM throughout. Also, the TGI in [7], in experiment [8], in experiment [9], in experiment [11], in experiment [12] and in experiment [13] was above 100 µM in each case. The TGI in experiment [14], in experiment [15], in experiment [16], in [17] and in experiment [18] was above 100 µM in each case.
As for `CCOC(=O)CC/C(C)=N\n1c(Cc2ccc(Cl)cc2)n[nH]c1=O`, the TGI in experiment [20], in [1], in [2], in experiment [3], in [5] and in experiment [6] was above 100 µM in each case. In addition, the TGI in experiment [7], in experiment [8], in experiment [9], in experiment [11], in [12] and in experiment [13] was above 100 µM each time. Further, the TGI in experiment [14], in experiment [15], in experiment [16], in [17] and in [18] was above 100 µM in each case.
Regarding `CCC(C)[C@H]1C(=O)N=C(N)N1C(=O)OCc1ccccc1` (stereo partly specified), the TGI in experiment [20], in [1], in experiment [2], in experiment [3], in experiment [5] and in [6] was above 100 µM throughout. Moreover, the TGI in experiment [7], in [8], in experiment [9], in experiment [10], in experiment [11] and in experiment [12] was above 100 µM in each case. Besides, the TGI in experiment [13], in experiment [14], in [15], in [16], in experiment [17] and in [18] was above 100 µM throughout.
On to `NNC(=O)CC(=O)Nc1ccc(C(=O)O)cc1`, for which the TGI in [19], in [1], in [2], in [3], in [4] and in experiment [5] was above 100 µM each time. In addition, the TGI in [6], in experiment [7], in [8], in [9], in [10] and in experiment [11] was above 100 µM throughout. In addition, the TGI in [12], in experiment [13], in experiment [14], in [15], in experiment [16] and in experiment [17] was above 100 µM each time. The molecule further had a TGI in experiment [18] above 100 µM.
